From ChEMBL document CHEMBL3885861, “Open TG-GATES”

Organism: Rattus norvegicus
Test: Open TG-GATES - Regimen: Single
Assay type: toxicity, organism-based, Sprague-Dawley
Design: regimen Single, gender Male, age 6 weeks
Conditions: in vivo, po, 100 mg/kg, route gavage, dose level Low; for APTT / Bas / Eos / Fbg / Hb / Ht / Lym / MCH / MCHC / MCV / Mono / Neu / PT / Plat / RBC / Ret / WBC: tissue Blood; for KIDNEY_L / KIDNEY_R / KIDNEY_TOTAL: tissue Kidney; for LIVER: tissue Liver; for A/G / ALP / ALT / AST / BUN / CRE / Ca / Cl / DBIL / GLC / IP / K / LDH / Na / PL / RALB / TBIL / TC / TG / TP / gamma-GTP: tissue Plasma

O=C(N[C@H](CO)[C@H](O)c1ccc([N+](=O)[O-])cc1)C(Cl)Cl [CHLORAMPHENICOL]
TERMINAL_BW (3 h): 219.7 g | APTT (3 h): 16 s | Bas (3 h): 0% | Eos (3 h): 0.6% | Fbg (3 h): 268.8 mg/dL | Hb (3 h): 13.2 g/dL | Ht (3 h): 38.6% | Lym (3 h): 76.2% | MCH (3 h): 21.9 pg | MCHC (3 h): 34.3% | MCV (3 h): 63.8 fL | Mono (3 h): 3% | Neu (3 h): 19.2% | PT (3 h): 14.6 s | Plat (3 h): 115.2 x10_4/uL | RBC (3 h): 608.2 x10_4/ul | Ret (3 h): 8.1% | WBC (3 h): 83.6 x10_2/uL | KIDNEY_L (3 h): 0.9 g | KIDNEY_R (3 h): 0.9 g | KIDNEY_TOTAL (3 h): 1.9 g | LIVER (3 h): 9.6 g | A/G (3 h): 0.8 | ALP (3 h): 1429.8 IU/L | ALT (3 h): 43 IU/L | AST (3 h): 74.2 IU/L | BUN (3 h): 10.2 mg/dL | CRE (3 h): 0.2 mg/dL | Ca (3 h): 11.5 mg/dL | Cl (3 h): 105 meq/L | DBIL (3 h): 0.014 mg/dL | GLC (3 h): 180.8 mg/dL | IP (3 h): 8.7 mg/dL | K (3 h): 4.2 meq/L | LDH (3 h): 58.6 IU/L | Na (3 h): 140.4 meq/L | PL (3 h): 136.6 mg/dL | RALB (3 h): 2.5 g/dL | TBIL (3 h): 0.06 mg/dL | TC (3 h): 78.4 mg/dL | TG (3 h): 58.4 mg/dL | TP (3 h): 5.4 g/dL | gamma-GTP (3 h): 1.2 IU/L | TERMINAL_BW (6 h): 219.6 g | APTT (6 h): 17.7 s | Bas (6 h): 0% | Eos (6 h): 0.8% | Fbg (6 h): 283.6 mg/dL | Hb (6 h): 13.4 g/dL | Ht (6 h): 42.9% | Lym (6 h): 78.2% | MCH (6 h): 21.3 pg | MCHC (6 h): 31.1% | MCV (6 h): 68.5 fL | Mono (6 h): 2.2% | Neu (6 h): 18.2% | PT (6 h): 14.7 s | Plat (6 h): 106.7 x10_4/uL | RBC (6 h): 627.6 x10_4/ul | Ret (6 h): 7.9% | WBC (6 h): 71.4 x10_2/uL | KIDNEY_L (6 h): 1 g | KIDNEY_R (6 h): 1 g | KIDNEY_TOTAL (6 h): 1.9 g | LIVER (6 h): 9.1 g | A/G (6 h): 0.9 | ALP (6 h): 1362.6 IU/L | ALT (6 h): 39.2 IU/L | AST (6 h): 75.2 IU/L | BUN (6 h): 9 mg/dL | CRE (6 h): 0.2 mg/dL | Ca (6 h): 11.4 mg/dL | Cl (6 h): 105 meq/L | DBIL (6 h): 0.012 mg/dL | GLC (6 h): 176.8 mg/dL | IP (6 h): 9.6 mg/dL | K (6 h): 4.2 meq/L | LDH (6 h): 89.4 IU/L | Na (6 h): 141 meq/L | PL (6 h): 126.2 mg/dL | RALB (6 h): 2.5 g/dL | TBIL (6 h): 0.066 mg/dL | TC (6 h): 72.6 mg/dL | TG (6 h): 48.4 mg/dL | TP (6 h): 5.4 g/dL | gamma-GTP (6 h): 1.2 IU/L | TERMINAL_BW (9 h): 221.1 g | APTT (9 h): 16.6 s | Bas (9 h): 0% | Eos (9 h): 1% | Fbg (9 h): 281.8 mg/dL | Hb (9 h): 13.3 g/dL | Ht (9 h): 42.4% | Lym (9 h): 78.6% | MCH (9 h): 21.2 pg | MCHC (9 h): 31.3% | MCV (9 h): 67.8 fL | Mono (9 h): 2% | Neu (9 h): 17.6% | PT (9 h): 14.8 s | Plat (9 h): 115.3 x10_4/uL | RBC (9 h): 626.6 x10_4/ul | Ret (9 h): 7.9% | WBC (9 h): 61.1 x10_2/uL | KIDNEY_L (9 h): 0.9 g | KIDNEY_R (9 h): 0.9 g | KIDNEY_TOTAL (9 h): 1.9 g | LIVER (9 h): 9 g | A/G (9 h): 0.9 | ALP (9 h): 1589.8 IU/L | ALT (9 h): 38.8 IU/L | AST (9 h): 67.2 IU/L | BUN (9 h): 9 mg/dL | CRE (9 h): 0.2 mg/dL | Ca (9 h): 11.4 mg/dL | Cl (9 h): 105.2 meq/L | DBIL (9 h): 0.014 mg/dL | GLC (9 h): 181 mg/dL | IP (9 h): 10 mg/dL | K (9 h): 4.2 meq/L | LDH (9 h): 61.4 IU/L | Na (9 h): 140.8 meq/L | PL (9 h): 145.6 mg/dL | RALB (9 h): 2.6 g/dL | TBIL (9 h): 0.072 mg/dL | TC (9 h): 83.2 mg/dL | TG (9 h): 47.4 mg/dL | TP (9 h): 5.5 g/dL | gamma-GTP (9 h): 1 IU/L | TERMINAL_BW (24 h): 224.4 g | APTT (24 h): 16.8 s | Bas (24 h): 0% | Eos (24 h): 1% | Fbg (24 h): 264.4 mg/dL | Hb (24 h): 13.3 g/dL | Ht (24 h): 41.6% | Lym (24 h): 79.8% | MCH (24 h): 21.4 pg | MCHC (24 h): 32% | MCV (24 h): 66.7 fL | Mono (24 h): 3.6% | Neu (24 h): 15% | PT (24 h): 14.8 s | Plat (24 h): 123 x10_4/uL | RBC (24 h): 623.4 x10_4/ul | Ret (24 h): 7% | WBC (24 h): 81.1 x10_2/uL | KIDNEY_L (24 h): 1 g | KIDNEY_R (24 h): 1 g | KIDNEY_TOTAL (24 h): 1.9 g | LIVER (24 h): 9.4 g | A/G (24 h): 0.9 | ALP (24 h): 1622.8 IU/L | ALT (24 h): 48.2 IU/L | AST (24 h): 80.4 IU/L | BUN (24 h): 15 mg/dL | CRE (24 h): 0.2 mg/dL | Ca (24 h): 11.4 mg/dL | Cl (24 h): 105.8 meq/L | DBIL (24 h): 0.012 mg/dL | GLC (24 h): 186.6 mg/dL | IP (24 h): 8.6 mg/dL | K (24 h): 4.1 meq/L | LDH (24 h): 61.4 IU/L | Na (24 h): 141.6 meq/L | PL (24 h): 133 mg/dL | RALB (24 h): 2.6 g/dL | TBIL (24 h): 0.058 mg/dL | TC (24 h): 76.8 mg/dL | TG (24 h): 53.6 mg/dL | TP (24 h): 5.6 g/dL | gamma-GTP (24 h): 1 IU/L
